Laboratory results published in patent publication US11559522B2, “Methods for enhancing liver regeneration” (The Trustees of the University of Pennsylvania, priority 2016, dated 2023).
“Also recorded” adds a separate entry of the source.

Columns and labels:
wild-type C57BL/6J mice = experiment: 2/3 partial hepatectomy (PHx) liver regeneration model, NR in the drinking water; assay type: in vivo, mouse
From the text: (§1) Animals, housing and drug treatment: Mice overexpressing Nampt in hepatocytes were obtained by crossing animals carrying an exogenous copy of the Nampt cDNA separated from the CAGGS promoter by a foxed stop cassette that were backcrossed to the C57BL/6J background (as described previously^7), with mice carrying Albumin-Cre (JAX strain B6.Cg-Tg(Alb-cre)21Mgn/J, stock number 003574). Littermates lacking Albumin Cre were used as controls. For studies on the adult onset of Nampt overexpression, 8-9 week old male Nampt^fl/fl and Nampt^wt/wt mice were injected with adeno-associated virus in the retroorbital plexus expressing either Cre recombinase (AAV-Cre) or enhanced green fluorescent protein (AAV-Gfp) under the control of thyroxine-binding globulin (Tbg) promoter (AAV-Cre). Nampt^fl/fl mice injected with AAV-Gfp and Namp^wt/wt injected with AAV-Cre served as controls. For inducible deletion of Nampt, mice originally created by Oberdan Leo at Université de Liège and backcrossed to the C57/BL6 background were employed and generously provided by Shin-Ichiro Imai at Washington University. As above, 8-9 week old male mice bearing two floxed alleles were injected retroorbitally with adeno-associated virus expressing either Cre recombinase (AAV-Cre) or enhanced green fluorescent protein (AAV-Gfp) under the control of thyroxine-binding globulin (Tbg) promoter. Fasting blood glucose was measured and partial hepatectomies were performed at >14 days after AAV infection in both the adult onset overexpression and liver-specific knock out cohorts. Animals were housed in groups of 4-5 mice/cage in pathogen-free barrier facility in a 12 h light-dark cycle with free access to food and water. For experiments containing only wild type animals, male C57BL/6J mice were ordered directly from Jackson Labs. For nicotinamide riboside (NR) (Chromadex Inc.) supplementation experiments, NR was dissolved in the drinking water at 3.0 mg/ml in light-protected bottles and was changed every 3 days. For fasting and re-feeding experiments, animals were fasted for 16 h with access to water ad libitum in cages containing Alpha-dri bedding. All animal work was performed in accordance with the U.S. Department of Health and Human Services Guide for the Care and Use of Laboratory Animals and with the approval of the University of Pennsylvania Institutional Animal Care and Use Committee.
(§2) Partial hepatectomy: 10-14 week old male transgenic mice underwent partial hepatectomy (PHx) according to the protocol of Mitchell and Willenbring between 8 AM and noon. Briefly, after isofluorane anesthesia, a ventral midline incision was made. Then the median and left lateral lobes, comprising 70% of the liver, were resected by pedicle ligation. For EdU (5-ethynyl-2′-deoxyuridine) labeling (Molecular probes), mice were injected intraperitoneally with the labeling reagent at a dose of 16 mg/kg, 5 h before sacrifice. Animals were sacrificed at 36 h or 48 h after PHx, as indicated. The resected and regenerating livers were snap frozen in liquid nitrogen, fixed in 4% paraformaldehyde, embedded in OCT medium (Tissue-TEK O.C.T compound, Sakura), or rapidly frozen in pre-chilled metal clamps in liquid nitrogen for NAD and ATP assays. All surgical procedures involving mice were approved by the Institutional Animal Care and Use Committee protocols of the University of Pennsylvania.
(§3) Histology, Immunohistochemistry, and Immunofluoresence: Mitotic figures were counted in Hematoxylin and eosin stained slides. Paraffin embedded liver sections of 5 μm thickness were deparaffinized in Xylene followed by rehydration through a graded ethanol series were stained with Gill 3 hematoxylin (Thermo Scientific) and eosin (Sigma). Mitotically active areas were first screened under lower magnification. For quantification, total mitotic counts in 10 high power fields (40×) in the most mitotically active areas were considered. […]

[1] = system: hepatocyte-specific Nampt deficient mice; experiment: Partial hepatectomy in hepatocyte-specific Nampt deficient mice (AAV-Cre) and AAV-Gfp littermate controls, with NR; assay type: in vivo, mouse; conditions: for Liver regeneration (EdU positive hepatocytes, liver to body weight ratio): first 48 hours after PHx, NR ~500 mg/kg/day
From the text: as §1, §2, §3

Sirt1 knockout mice = experiment: Partial hepatectomy in Sirt1 knockout mice and littermate controls, with NR; assay type: in vivo, mouse
Method: Partial hepatectomy: 10-14 week old male transgenic mice underwent partial hepatectomy (PHx) according to the protocol of Mitchell and Willenbring between 8 AM and noon. Briefly, after isofluorane anesthesia, a ventral midline incision was made. Then the median and left lateral lobes, comprising 70% of the liver, were resected by pedicle ligation. For EdU (5-ethynyl-2′-deoxyuridine) labeling (Molecular probes), mice were injected intraperitoneally with the labeling reagent at a dose of 16 mg/kg, 5 h before sacrifice. Animals were sacrificed at 36 h or 48 h after PHx, as indicated. The resected and regenerating livers were snap frozen in liquid nitrogen, fixed in 4% paraformaldehyde, embedded in OCT medium (Tissue-TEK O.C.T compound, Sakura), or rapidly frozen in pre-chilled metal clamps in liquid nitrogen for NAD and ATP assays. All surgical procedures involving mice were approved by the Institutional Animal Care and Use Committee protocols of the University of Pennsylvania. Histology, Immunohistochemistry, and Immunofluoresence: Mitotic figures were counted in Hematoxylin and eosin stained slides. Paraffin embedded liver sections of 5 μm thickness were deparaffinized in Xylene followed by rehydration through a graded ethanol series were stained with Gill 3 hematoxylin (Thermo Scientific) and eosin (Sigma). Mitotically active areas were first screened under lower magnification. For quantification, total mitotic counts in 10 high power fields (40×) in the most mitotically active areas were considered. Representative photomicrographs were taken at 400× magnification using a light microscope coupled with a digital image acquisition system. For immunofluorescent detection of Nampt expression in paraffin sections, antigens were retrieved in R-buffer (Electron Microscopy Sciences Ct #62706-10) followed by quenching and blocking in Cas-Block (Invitrogen 00-8120) for 20 min. Slides were then incubated overnight at 4° C. in humidified chamber with primary rabbit polyclonal anti-NAMPT antibody (Bethyl Laboratories, dilution 1:1000). Goat anti-rabbit IgG (Alexa Fluor 488) was used as secondary antibody at dilution of 1:600 and slides were counter-stained with DAPI (Vector laboratories). For quantification, cells were examined and imaged using a Zeiss Axioplan 2 imaging system under a 20× objective taking both the central and portal venous areas. Studies were performed to determine the ability of NR to improve liver regeneration in the context of Sirt1 deletion, which impairs this process. Sirt1 knockouts and littermate controls were treated with NR (500 mgs/Kg/day) for 2 weeks prior to partial hepatectomy (PHx). […] In another assay, liver regeneration during the first 36 hour post PHx was compromised in Sirt1 knockout mice and restored by NR treatment. […]

hepatocyte = conditions: cited from earlier work
[2] = NR ~500 mg/kg, 48 hours post PHx
[3] = Sirt1 deficient mice, NR 500 mgs/Kg/day for 2 weeks prior to PHx

NC(=O)c1ccc[n+]([C@@H]2O[C@H](CO)[C@@H](O)[C@H]2O)c1 [NR, nicotinamide riboside]
Increase of liver NAD content, pre hepatectomy (wild-type C57BL/6J mice; NR 3 mg/mL in drinking water (~500 mg/kg) for 14 days, pre PHx, vs control mice): ~35%
Increase of liver NAD content, post hepatectomy (wild-type C57BL/6J mice; NR 3 mg/mL in drinking water (~500 mg/kg) from 14 days before PHx, 48 hours post PHx, vs control mice): ~58%
Liver ATP levels (wild-type C57BL/6J mice; NR treated mice, pre or post hepatectomy, regenerating livers): enhanced
Fatty changes (hepatic steatosis, micro and macro vesicular lipid droplets, hepatic triglyceride accumulation) (wild-type C57BL/6J mice; [2]): almost completely absent; also recorded: not evident
Hepatocyte proliferation (incorporation of EdU into DNA) (wild-type C57BL/6J mice; [2]): greatly enhanced
Liver mass (liver to body weight ratio) after PHx (wild-type C57BL/6J mice; [2]): significant improvement
Macroscopic appearance of regenerating livers (wild-type C57BL/6J mice; NR ~500 mg/kg, 48 hours post PHx, control livers pale, mottled): more uniformly colored
Increase in mitotic activity (mitotic figures, H&E stained sections) (wild-type C57BL/6J mice; NR ~500 mg/kg, 48 hours post PHx, vs control): 48%
Hepatic steatosis at 36 hours post-PHx (wild-type C57BL/6J mice; NR-treated mice, 36 hours post-PHx): Some steatosis was visible
Mitotic index ([1]; Nampt KO mice, 48 hours after PHx): largely restored
Liver regeneration (EdU positive hepatocytes, liver to body weight ratio) ([1]; Nampt KO mice): restored
Liver regeneration (EdU positive hepatocytes, liver to body weight ratio) ([1]; Nampt KO mice, listed as nicotinamide riboside): completely rescued
Reduction of hepatic triglycerides with NR treatment ([1]; Nampt fl/fl AAV-Cre mice, 48 hours after PHx): ~35%
Petechial hemorrhage / pale regenerated livers (macroscopic) ([1]; Nampt fl/fl AAV-Cre mice, NR ~500 mg/kg/day 2 weeks prior to PHx, 48 hours): prevented
Hepatic fatty changes in NAMPT deficient regenerating livers (histology) ([1]; Nampt fl/fl AAV-Cre, 48 hours after PHx): nearly normalized
Reduction of hepatic triglycerides with NR treatment ([1]; Nampt fl/fl AAV-Gfp mice, 48 hours after PHx): 75%
Liver NAD content ([1]; both genotypes (AAV-Gfp and AAV-Cre), before and after PHx): effectively increased
Hepatic lipid accumulation in regenerating wild type livers (histology) ([1]; wild type (AAV-Gfp control) livers, 48 hours after PHx): abolished
Acute hepatic steatosis phenotype (H&E sections) (Sirt1 knockout mice; [3]): partially rescued
Hepatic fatty changes (Sirt1 knockout mice; [3]): attenuated
Liver regeneration during the first 36 hour post PHx (Sirt1 knockout mice; Sirt1 knockout mice): restored
Size of the regenerated livers compared to untreated livers (Sirt1 knockout mice; both wild type and Sirt1 knockout mice, 36 hour post PHx): increase

Oc1ccc(/C=C/c2cc(O)cc(O)c2)cc1 [resveratrol]
Hepatocyte replication (hepatocyte): slow
Hepatocyte survival in injury models (hepatocyte): improve
